Four compounds from ChEMBL document CHEMBL2069291, “Orally available pyridinylpyrimidine derivatives as novel RANKL-induced osteoclastogenesis inhibitors” (Bioorg Med Chem Lett, 2012) can be followed below.

The term Cmax denotes the maximum level reached in the sampled fluid or tissue. Broadly, the solubility is the concentration that dissolves in the medium under given conditions. A high value points to much dissolved substance. By AUC(0-inf) is commonly meant the area under the concentration-time curve extrapolated to infinity.

Data set [1] is described as follows: Cmax in female C57BL/6 mouse at 3 mg/kg, po administered as single dose. On the set-up: dose 3 mg/kg, route oral. The conditions noted are these: in vivo. It counts as ADME, organism-based.
A short description of data set [2]: Solubility in phosphate buffer at pH 6.8. It is filed as physicochemical.
A short description of data set [3]: Permeability of the compound by PAMPA assay. It counts as ADME. The conditions noted are these: read-out: permeability. Background: In PAMPA a lipid-coated filter parts donor from acceptor wells.
Data set [4] can be described thus: AUC (0 to infinity) in ovariectomized Wistar rat at 3 mg/kg, po administered as single dose. It counts as ADME, organism-based. On the set-up: dose 3 mg/kg, route oral, time infinity. The conditions noted are these: female, plasma.
Data set [5] is described as follows: AUC (0 to infinity) in female C57BL/6 mouse at 3 mg/kg, po administered as single dose. It is filed as ADME, organism-based. Details: dose 3 mg/kg, route oral, time infinity. The conditions noted are these: plasma.
Data set [6] is described as follows: Cmax in ovariectomized Wistar rat at 3 mg/kg, po administered as single dose. On the set-up: dose 3 mg/kg, route oral. The conditions noted are these: female, in vivo. It is filed as ADME, organism-based.
Data set [7] in a line: AUC (0 to infinity) in female C57BL/6 mouse at 1 mg/kg, po administered as single dose. The conditions noted are these: plasma.
Data set [8] is described as follows: Cmax in female C57BL/6 mouse at 1 mg/kg, po administered as single dose. The conditions noted are these: in vivo.

Some results are limits rather than exact numbers.

Take `COc1cnc(-c2ccccn2)nc1NCc1ccc(F)cc1C(F)(F)F`: the figures for the Cmax in data set [1] and in data set [6] were 599 ng/mL and 156 ng/mL, respectively. In data set [2], this compound registered a solubility greater than 25 µg/mL. For the same compound, the Papp in data set [3] is greater than 30 ×10⁻⁶ cm/s. Further, the AUC(0-inf) in data set [4] came to 943 ng·h/mL; in data set [5], 1020 ng·h/mL.

In the case of `COc1cnc(-c2ccccn2)nc1NCc1c(F)cc(F)cc1F`, the Cmax in data set [1] was 98 ng/mL; in data set [6], 135 ng/mL. The compound also yielded a solubility in data set [2] greater than 25 µg/mL. Moreover, the Papp in data set [3] was greater than 30 ×10⁻⁶ cm/s. Further, the AUC(0-inf) in data set [4] is 542 ng·h/mL; in data set [5], 188 ng·h/mL.

For `COc1cnc(-c2ccccn2)nc1NCc1ccccc1F`, the figures for the Cmax in data set [1] and in data set [6] were 130 ng/mL and 49 ng/mL, respectively. Moreover, the solubility in data set [2] is greater than 25 µg/mL. The Papp in data set [3] is greater than 30 ×10⁻⁶ cm/s. In addition, the AUC(0-inf) worked out at 151 ng·h/mL in data set [4] and 240 ng·h/mL in data set [5].

Consider `COc1cnc(-c2ccccn2)nc1N1CCCC1`, for which the AUC(0-inf) in data set [7] turned out to be 15 ng·h/mL. Also, in data set [8], the peak level (Cmax) was 7 ng/mL.
